According to patent US20240424071A1, “NOVEL MUTANT OF RECOMBINANT GANODERMA LUCIDUM IMMUNOMODULATORY PROTEIN AND USE THEREOF” (CHANGCHUN INTELLICROWN PHARMACEUTICAL CO., LTD., priority 2021, published 2024):

Legend:
[1] = tested on: LI6669 human liver cancer orthotopic transplantation tumor; experiment: LI6669 human liver cancer orthotopic transplantation tumor model (PDX), survival; type: in vivo, BALB/c nude mouse; conditions: Group 2, 50 mg/kg QD p.o. for 28 days; solvent control […] days
Excerpt: LI6669 is a HuPrime® orthotopic transplantation model originated from a patient's liver cancer.
Tumor tissue was collected from a LI6669 tumor-bearing mouse, a HuPrime® orthotopic transplantation model of liver, and cut to tumor pieces with a diameter of 2-3 mm, which were inoculated into the upper left lobe of liver of a Balb/c nude mouse.
When the average tumor volume of the tumor-bearing mice reached about 50-150 mm^3, the mice were randomly grouped by weight according to Table 3 of “3. Design of Experiment”. The grouping day was set as Day 0, and the administration began on Day 1. […].
After tumor cell inoculation, route monitoring comprises the tumor growth and the effect of treatment on normal behaviors of animals, specially including the activity, food intake and water consumption, weight gain or loss, eyes, fur of experimental animals, and other abnormal conditions. The clinical symptoms observed during the experiments were all recorded in the original data. After drug administration, the mice were measured twice a week for their weights. Observation was made to record the mouse requiring euthanasia and the corresponding survival time.

[2] = tested on: human non-small cell lung cancer cell line A549; experiment: Killing effect on tumor cells, CellTiter-Fluor Cell Viability Assay; type: cell-based; conditions: 48 h, 2% fetal bovine serum medium
Experimental: CellTiter™-Flour Cell Viability Assay Reagent kit was used to detect the killing effects of the EAEA+rLZ-8 mutant (SEQ ID NO: 14) and the […]+rLZ-8 mutant (SEQ ID NO: 15) on tumor cells (human non-small cell lung cancer cell line A549) in vitro. The recombinant protein was diluted with 2% fetal bovine serum culture medium to produce test solutions with concentrations of 100 μg/mL, 50 μg/mL, 25 μg/mL, 12.5 μg/mL, 6.25 μg/mL, 3.125 μg/mL, 1.5625 μg/mL, 0.78125 μg/mL, 0.390625 μg/mL, 0.1953125 μg/mL, and 0.09765625 μg/mL, total 11 concentrations.
The dilutions were added into a 96-well plate containing A549 cells with 100 μL/well. For each group of concentration, 3 parallel wells were set and marked. A cell control group (i.e., cells only) was set at 100 μL/well, with 6 parallel wells. The plates were cultured in a CO2 incubator at 5% CO2 and 37° C. for 48 h.
100 μL of prepared CellTiter™-Flour Cell Viability Assay Reagent (1 mLL Assay Buffer; 1 μl GF-AFC Substrate) was added into each well. The plates were shaken for mixing well, and incubated in a CO2 incubator at 5% CO2 and 37° C. for not less than 30 min. The fluorescence value was detected with a microplate reader at a wavelength of 400EX/505EM, and the IC50value was calculated.

CNC(=O)c1cc(Oc2ccc(NC(=O)Nc3ccc(Cl)c(C(F)(F)F)c3)cc2)ccn1 [Sorafenib, reference compound]
Median Survival [1]: >28 days

B1: EEAEAEAEPK+rLZ-8 mutant: recombinant protein: spacer peptide EEAEAEAEPK (SEQ ID NO: 9) linked to rLZ-8 mutant (SEQ ID NO: 13) (protein)
chain: EEAEAEAEPKMSDTALIFRLAWDVKKLSFDYTPNWGRGNPNNFIDTVTFPKVLTDKAYTYRVAVSGRNLGVKPSYAVESKGSQKVNFLEYNSGYGIADTNTIQVFVVDPDTNNDFIIAQWN
modifications: EEAEAEAEPK-rLZ-8 mutant (D70K)
IC50, killing effect on lung cancer cell line A549 [2]: 1.91 µg/mL
